Measurements published in paper PMC10364322, “Evaluation of chronic drug-induced electrophysiological and cytotoxic effects using human-induced pluripotent stem cell-derived cardiomyocytes (hiPSC-CMs)” (Frontiers in Pharmacology, 2023).
Like-named read-outs stand apart in the source and are kept apart here.

Columns and labels:
[1] = tested on: hiPSC-CMs (iCell-Cardiomyocytes^2)
Experimental: (§1) Cells were seeded according to the instructions of the cell provider, in fibronectin-coated 48-well MEA plates (Axion Cytoview Plates, M768-tMEA-48B) at a density suited to form a monolayer (i.e., 50 K/well) and maintained in culture in a stage incubator (37°C, 5% CO2).
(§2) At least 4 h before the beginning of the baseline measurements, a full medium exchange was performed (to a final volume of 400 µL per well). Neat compounds were dissolved in 100% DMSO at a stock concentration 1000-fold the highest target concentration. […] Afterwards, these stock solutions were diluted with Maintenance medium (CDi), to 10-fold the intended concentration. The final DMSO concentration in test solutions and vehicle control was 0.1%.
(§3) Spontaneous electrical activity was recorded in hiPSC-CMs monolayers as field potentials using the Maestro Pro MEA instrument (Axion Biosystems, Atlanta, GA, United States), which allows the maintenance of accurate temperature and CO2 levels (37°C, 5% CO2). After the plate was placed in the Maestro Pro and allowed to equilibrate for about 10 min, baseline acquisition of field potential and impedance signals was initiated and lasted for 5 min each. […] As impedance measures resistance of an applied alternating current through the hiPSC-CMs monolayer, a reduction in the attachment of hiPSC-CMs to the bottom of the well due to cell death or changes in the monolayer morphology, causes a drop in the impedance signal.
The potential presence of various arrhythmic events was evaluated and noted during the data analysis.
(§4) After the acquisition of all timepoint measurements, raw data were loaded into the data analysis software Axion Cardiac Analysis Tool (V.3.2.3). […] A.csv file containing information on the FP parameters per well, per time point, was then generated and used as input to the in-house data management system (SPEcII v.3.4, Unlimit-IT, Geel, Belgium), where descriptive statistics were calculated. Summary values at different time points after compound addition are expressed as percent change from baseline and shown as mean ± standard deviation (SD).
(§5) The nonparametric Wilcoxon-Mann Whitney Test was used to compare the percent change from the baseline (Δ%) value between the group treated with the compound at a given concentration and the group treated with the DMSO at each matching time points. A two-sided test at 5% significance level was considered. […] To assess the physiological relevance of changes, a tolerance interval of DMSO experiments was calculated at each time point, for each parameter. […] TIs indicate an interval where, with a certain confidence level (1- α = 0.95), a specified proportion (p = 0.80) of percent change for DMSO data falls. The lower and upper limits based on the TI values were used as cut-offs for the interpretation of the changes. For the cytotoxicity assays, measurements of fluorescence (after background fluorescence subtraction) from wells treated with the compounds were normalized by the average value of vehicle experiments (DMSO 0.1%) to obtain a DMSO-corrected, delta/delta percent change. Experiments from each condition, as delta/delta percent, were averaged and expressed as mean ± SD. Statistical analysis was performed using a non-parametric test (Kruskal-Wallis) and each treatment condition was compared to the relative DMSO 0.1%. Differences were considered statistically significant when the p-value was smaller than 0.05.

[2] = tested on: hiPSC-CMs (iCell-Cardiomyocytes^2); assay: MEA impedance (cytotoxicity readout) in hiPSC-CMs
Experimental: as §1, §2, §3, §4, §5

[3] = free therapeutic Cmax in humans; ref FDA-approved drug packages, PharmaPendium; cited from earlier work

Structure (SMILES): CC1(C)S[C@@H]2[C@H](NC(=O)[C@H](N)c3ccc(O)cc3)C(=O)N2[C@H]1C(=O)O [Amoxicillin]
- BR (beating rate), % change from baseline ([1]; 1 µM, 2h): 8±1%
- FPD (field-potential duration), % change from baseline ([1]; 1 µM, 2h): -1±2.2%
- FPDc (field-potential duration corrected by beat-rate), % change from baseline ([1]; 1 µM, 2h): 1.6±2.2%
- BR (beating rate), % change from baseline ([1]; 1 µM, 24h): 16±2%
- FPD (field-potential duration), % change from baseline ([1]; 1 µM, 24h): -2.8±1.5%
- FPDc (field-potential duration corrected by beat-rate), % change from baseline ([1]; 1 µM, 24h): 2.1±1.1%
- BR (beating rate), % change from baseline ([1]; 1 µM, 48h): 3±2%
- FPD (field-potential duration), % change from baseline ([1]; 1 µM, 48h): 4.3±3%
- FPDc (field-potential duration corrected by beat-rate), % change from baseline ([1]; 1 µM, 48h): 5.3±2.8%
- BR (beating rate), % change from baseline ([1]; 1 µM, 72h): -2±3%
- FPD (field-potential duration), % change from baseline ([1]; 1 µM, 72h): 8.1±4.8%
- FPDc (field-potential duration corrected by beat-rate), % change from baseline ([1]; 1 µM, 72h): 7±3.6%
- BR (beating rate), % change from baseline ([1]; 1 µM, 96h): -21±2 %
- FPD (field-potential duration), % change from baseline ([1]; 1 µM, 96h): 16.9±3%
- FPDc (field-potential duration corrected by beat-rate), % change from baseline ([1]; 1 µM, 96h): 8.1±2%
- BR (beating rate), % change from baseline ([1]; 3 µM, 72h): -4±3%
- FPD (field-potential duration), % change from baseline ([1]; 3 µM, 72h): 9.6±3.7%
- FPDc (field-potential duration corrected by beat-rate), % change from baseline ([1]; 3 µM, 72h): 8.4±2.9%
- BR (beating rate), % change from baseline ([1]; 3 µM, 96h): -20±4 %
- FPD (field-potential duration), % change from baseline ([1]; 3 µM, 96h): 18.2±7.7%
- FPDc (field-potential duration corrected by beat-rate), % change from baseline ([1]; 3 µM, 96h): 9.6±6.7%
- BR (beating rate), % change from baseline ([1]; 3 µM, 2h): 8±1%
- FPD (field-potential duration), % change from baseline ([1]; 3 µM, 2h): 0.7±2.8%
- FPDc (field-potential duration corrected by beat-rate), % change from baseline ([1]; 3 µM, 2h): 3.1±2.9%
- BR (beating rate), % change from baseline ([1]; 3 µM, 24h): 16±3%
- FPD (field-potential duration), % change from baseline ([1]; 3 µM, 24h): -2.7±2.9%
- FPDc (field-potential duration corrected by beat-rate), % change from baseline ([1]; 3 µM, 24h): 2.3±2.9%
- BR (beating rate), % change from baseline ([1]; 3 µM, 48h): 2±2%
- FPD (field-potential duration), % change from baseline ([1]; 3 µM, 48h): 5.1±3.9%
- FPDc (field-potential duration corrected by beat-rate), % change from baseline ([1]; 3 µM, 48h): 5.7±3.9%
- BR (beating rate), % change from baseline ([1]; 10 µM, 2h): 8±3%
- FPD (field-potential duration), % change from baseline ([1]; 10 µM, 2h): 0.5±3.7%
- FPDc (field-potential duration corrected by beat-rate), % change from baseline ([1]; 10 µM, 2h): 3±3.1%
- BR (beating rate), % change from baseline ([1]; 10 µM, 24h): 18±6 %
- FPD (field-potential duration), % change from baseline ([1]; 10 µM, 24h): -3.1±4.9%
- FPDc (field-potential duration corrected by beat-rate), % change from baseline ([1]; 10 µM, 24h): 2.2±3.9%
- BR (beating rate), % change from baseline ([1]; 10 µM, 48h): 3±4%
- FPD (field-potential duration), % change from baseline ([1]; 10 µM, 48h): 6.6±2.8%
- FPDc (field-potential duration corrected by beat-rate), % change from baseline ([1]; 10 µM, 48h): 7.4±2.1%
- BR (beating rate), % change from baseline ([1]; 10 µM, 72h): -1±8%
- FPD (field-potential duration), % change from baseline ([1]; 10 µM, 72h): 9.6±7.3%
- FPDc (field-potential duration corrected by beat-rate), % change from baseline ([1]; 10 µM, 72h): 8.9±4.3%
- BR (beating rate), % change from baseline ([1]; 10 µM, 96h): -19±5 %
- FPD (field-potential duration), % change from baseline ([1]; 10 µM, 96h): 18.3±5.7%
- FPDc (field-potential duration corrected by beat-rate), % change from baseline ([1]; 10 µM, 96h): 10.4±4.4%
- BR (beating rate), % change from baseline ([1]; 30 µM, 2h): 5±4%
- FPD (field-potential duration), % change from baseline ([1]; 30 µM, 2h): -0.1±3.5%
- FPDc (field-potential duration corrected by beat-rate), % change from baseline ([1]; 30 µM, 2h): 1.6±2.8%
- BR (beating rate), % change from baseline ([1]; 30 µM, 24h): 15±6%
- FPD (field-potential duration), % change from baseline ([1]; 30 µM, 24h): -4.2±3.4%
- FPDc (field-potential duration corrected by beat-rate), % change from baseline ([1]; 30 µM, 24h): 0.5±2.7%
- BR (beating rate), % change from baseline ([1]; 30 µM, 48h): 1±5%
- FPD (field-potential duration), % change from baseline ([1]; 30 µM, 48h): 5.6±1.7%
- FPDc (field-potential duration corrected by beat-rate), % change from baseline ([1]; 30 µM, 48h): 6±2.2%
- BR (beating rate), % change from baseline ([1]; 30 µM, 72h): -3±8%
- FPD (field-potential duration), % change from baseline ([1]; 30 µM, 72h): 8.8±5.4%
- FPDc (field-potential duration corrected by beat-rate), % change from baseline ([1]; 30 µM, 72h): 7.7±3.8%
- BR (beating rate), % change from baseline ([1]; 30 µM, 96h): -20±4 %
- FPD (field-potential duration), % change from baseline ([1]; 30 µM, 96h): 16.4±1.3%
- FPDc (field-potential duration corrected by beat-rate), % change from baseline ([1]; 30 µM, 96h): 7.9±2.1%
- Imp (impedance), % change from baseline ([2]; 1 µM, 2h): 2±4%
- Imp (impedance), % change from baseline ([2]; 1 µM, 24h): 9±7%
- Imp (impedance), % change from baseline ([2]; 1 µM, 48h): -2±4%
- Imp (impedance), % change from baseline ([2]; 1 µM, 72h): 4±3 %
- Imp (impedance), % change from baseline ([2]; 1 µM, 96h): 0±8%
- Imp (impedance), % change from baseline ([2]; 3 µM, 72h): 1±4%
- Imp (impedance), % change from baseline ([2]; 3 µM, 96h): -2±6%
- Imp (impedance), % change from baseline ([2]; 3 µM, 2h): 2±3%
- Imp (impedance), % change from baseline ([2]; 3 µM, 24h): 7±6%
- Imp (impedance), % change from baseline ([2]; 3 µM, 48h): -3±6%
- Imp (impedance), % change from baseline ([2]; 10 µM, 2h): 2±3%
- Imp (impedance), % change from baseline ([2]; 10 µM, 24h): 7±6%
- Imp (impedance), % change from baseline ([2]; 10 µM, 48h): -2±3%
- Imp (impedance), % change from baseline ([2]; 10 µM, 72h): 1±4%
- Imp (impedance), % change from baseline ([2]; 10 µM, 96h): -1±6%
- Imp (impedance), % change from baseline ([2]; 30 µM, 2h): 2±3%
- Imp (impedance), % change from baseline ([2]; 30 µM, 24h): 2±4%
- Imp (impedance), % change from baseline ([2]; 30 µM, 48h): -1±3%
- Imp (impedance), % change from baseline ([2]; 30 µM, 72h): -6±4%
- Imp (impedance), % change from baseline ([2]; 30 µM, 96h): -4±5%
- Free Cmax [3]: 16.1 µM
